Data taken from patent US7772255B2, “Method of treating tumors with azaxanthones” (Supratek Pharma, Inc., priority 2005, dated 2010).
Structures can show the parent of a compound that is named as a salt. Where two headings read alike, the source gives them in different places.

Assays:
[1] = Bioavailability and pharmacokinetics in normal rats; type: in vivo, rat; details: for AUC / Cmax / MRT / half-life / bioavailability / clearance / Vd: female, CD; for AUC / Cmax / MRT / half-life / bioavailability: rat, plasma; for AUC / Cmax / MRT / half-life / CL / Vss / clearance / Vd: rat plasma; for bioavailability: read-out: Bioavailability for oral administration; for CL / Vss: oral; for Vd: read-out: Vss
Protocol: Female CD rats (from 200 to 250 g body weight) were obtained from Charles River Canada Inc. (St. Constant, Quebec, Canada). The animals were kept 4 per cage with an air filter cover under light (12 h light/dark cycle, light on at 06 h 00) and temperature (22°±1° C.)-controlled environment. All manipulations with the animals were performed under a sterilized laminar hood. The animals had ad libitum access to Purina rat chow (Pro Lab PMH 4018, Trademark of Agway, Syracuse, N.Y.) and water. The animal studies were conducted according to the “Guidelines for Care and Use of Experimental Animals”.
For Amlexanox salt the dosing solution was prepared by dissolving 20 mg of Amlexanox in equi-molar NaOH solution and then, equilibrated with 1M Tris-HCl pH 7.4. For Amlexanox acid the dosing solution was prepared by simple suspending 20 mg of Amlexanox in 1% methyl cellulose in water.
Amlexanox dosing solution (20 mg/mL) was administered i.v. and orally in normal rats (four animals in each group) at doses of 10, 25, 50, 100 and 200 mg/kg. After various time intervals (30 min and 1, 3, 6, 10 and 24 h) post-injection, blood was collected from eye vein of animals. Then, blood was immediately centrifuged, and plasma was separated. The plasma samples were immediately frozen in dry ice and stored at −80° C. until further use.
(§1) The defrosted plasma samples were centrifuged at 2000 g for 5 min, and aliquots (10 μL) of each sample were transferred into 1.5-ml plastic tubes. The samples were diluted with phosphate buttered saline (PBS) in various amounts of times and aliquots of 100 μL were transferred into the other 1.5-ml plastic tubes. The samples were extracted with 1 mL of 100% acetonitrile for 10 min on 180° rotator. Then, the tubes were centrifuged at 10,000 g for 15 min.
(§2) The supernatant was separated to glass tubes and evaporated in a stream of nitrogen at […]. until dryness. The dried samples were kept at −20° C. until HPLC analysis. The samples were reconstituted in 100 μL of mobile phase analyze before analyze by HPLC.
(§3) The samples were analysed by HPLC using 250×4.6 mm, Phenomenex C18 Luna, 5 micron column, 1 mL/min flow rate of mobile phase 73% of 25 mM sodium phosphate pH 7.5 and 27% acetonitrile; fluorescent deyection λexcitation=348 nm, λemission=404 nm.
The concentrations of Amlexanox in samples were determined by comparison with calibration curve obtained from spiked rat plasma samples using the same analytical method. The areas under the curves (AUC) of Amlexanox were calculated by trapezoidal method.

[2] = Pharmacokinetics in normal dogs; type: in vivo, dog (Canis familiaris); details: 10 mg/kg
Protocol: Experiments were performed in 6 male Beagle dogs (Canis familiaris) (from 8 to 14 kg body weight, 2 to 3 years of age). The animals had ad libitum access to tap water. Commercial dog chow was provided to the animals once daily during a 2-hour feeding period.
Dosing solution of amlexanox salt was prepared by simple dissolving of amlexanox salt in water. Dosing solution of amlexanox acid was prepared suspending of amlexanox acid in 0.5% methyl cellulose.
Amlexanox acid and Na salt forms were orally administered by gavage in dogs (three animals in each group) at doses of 10 mg/kg. Amlexanox tablets L and CP, prepared according to Example 13, were administered to dogs orally at doses of 10 mg/kg. After various time intervals (pre-dose, 15, 30 min and 1, 2, 3, 6, 8, 12, 24 and 48 h) post-injection, blood was collected from the jugular vein of animals. Then, blood was immediately centrifuged, and plasma was separated. The plasma samples were immediately frozen in dry ice and stored at −80° C. until further use.
as §1, with “PBS” for “phosphate buttered saline (PBS)”
as §2, §3
The concentrations of amlexanox in samples were determined by comparison with calibration curve obtained from spiked dog plasma samples using the same analytical method. The areas under the curves (AUC) of amlexanox were calculated by trapezoidal method.

[3] = po, 10 mg/kg, acid suspended in 1% methyl cellulose
[4] = po, 25 mg/kg, acid suspended in 1% methyl cellulose
[5] = po, 50 mg/kg, acid suspended in 1% methyl cellulose
[6] = po, 100 mg/kg, acid suspended in 1% methyl cellulose
[7] = po, 200 mg/kg, acid suspended in 1% methyl cellulose
[8] = acid suspended in 1% methyl cellulose, 10 mg/kg
[9] = acid suspended in 1% methyl cellulose, 25 mg/kg
[10] = acid suspended in 1% methyl cellulose, 50 mg/kg
[11] = acid suspended in 1% methyl cellulose, 100 mg/kg
[12] = acid suspended in 1% methyl cellulose, 200 mg/kg
[13] = dog plasma, oral, listed as Amlexanox Acid
[14] = dog plasma, oral, listed as Amlexanox Na Salt, sodium salt

CC(C)c1ccc2oc3nc(N)c(C(=O)O)cc3c(=O)c2c1 [Amlexanox, 2-amino-7-isopropyl-1-azaxanthone-3-carboxylic acid]
AUC [1, 3]: 1050 ng·h/mL | Cmax [1, 3]: 370 ng/mL | MRT [1, 3]: 6.28 h | half-life [1, 3]: 4.36 h | bioavailability ([1]; po, 10 mg/kg, acid, 10 mg/kg): 31.5% | AUC [1, 4]: 1380 ng·h/mL | Cmax [1, 4]: 260 ng/mL | MRT [1, 4]: 11.3 h | half-life [1, 4]: 7.81 h | bioavailability ([1]; po, 25 mg/kg, acid, 25 mg/kg): 2.9% | AUC [1, 5]: 2380 ng·h/mL | Cmax [1, 5]: 580 ng/mL | MRT [1, 5]: 8.43 h | half-life [1, 5]: 5.84 h | bioavailability ([1]; po, 50 mg/kg, acid, 50 mg/kg): 1.1% | AUC [1, 6]: 8830 ng·h/mL | Cmax [1, 6]: 1170 ng/mL | MRT [1, 6]: 8.7 h | half-life [1, 6]: 6.04 h | bioavailability ([1]; po, 100 mg/kg, acid, 100 mg/kg): 2.2% | AUC [1, 7]: 18600 ng·h/mL | Cmax [1, 7]: 7000 ng/mL | MRT [1, 7]: 5.32 h | half-life [1, 7]: 3.68 h | bioavailability ([1]; po, 200 mg/kg, acid, 200 mg/kg): 2.5% | CL [1, 8]: 158 mL/min/kg | Vss [1, 8]: 59.8 L/kg | CL [1, 9]: 301.7 mL/min/kg | Vss [1, 9]: 204 L/kg | CL [1, 10]: 350.2 mL/min/kg | Vss [1, 10]: 177.2 L/kg | CL [1, 11]: 188.3 mL/min/kg | Vss [1, 11]: 98.5 L/kg | CL [1, 12]: 89.5 mL/min/kg | Vss [1, 12]: 28.5 L/kg | AUC [2, 13]: 7600 ng·h/mL | CL [2, 13]: 21.7 mL/min/kg | Cmax [2, 13]: 3400 ng/mL | Vss [2, 13]: 4.3 L/kg | half-life ([2]; male, Beagle, dog, plasma, po): 2.3 h | MRT ([2]; male, Beagle, dog, plasma, po, read-out: MRT): 3.3 h

CC(C)c1ccc2oc3nc(N)c(C(=O)O)cc3c(=O)c2c1 [Amlexanox (salt), 2-amino-7-isopropyl-1-azaxanthone-3-carboxylic acid sodium salt]
clearance ([1]; iv, I.V., 10 mg/kg): 50 mL/min/kg | Vd ([1]; iv, I.V., 10 mg/kg): 2.26 L/kg | clearance ([1]; iv, I.V., 25 mg/kg): 8.83 mL/min/kg | Vd ([1]; iv, I.V., 25 mg/kg): 0.99 L/kg | clearance ([1]; iv, I.V., 50 mg/kg): 1.67 mL/min/kg | Vd ([1]; iv, I.V., 50 mg/kg): 0.1 L/kg | clearance ([1]; iv, I.V., 100 mg/kg): 2.17 mL/min/kg | Vd ([1]; iv, I.V., 100 mg/kg): 0.14 L/kg | clearance ([1]; iv, I.V., 200 mg/kg): 4.5 mL/min/kg | Vd ([1]; iv, I.V., 200 mg/kg): 0.51 L/kg | AUC ([1]; iv, 10 mg/kg, I.V.): 3300 ng·h/mL | Cmax ([1]; iv, 10 mg/kg, I.V.): 4500 ng/mL | MRT ([1]; iv, 10 mg/kg, I.V.): 0.75 h | half-life ([1]; iv, 10 mg/kg, I.V.): 0.52 h | AUC ([1]; iv, 25 mg/kg, I.V.): 47000 ng·h/mL | Cmax ([1]; iv, 25 mg/kg, I.V.): 33400 ng/mL | MRT ([1]; iv, 25 mg/kg, I.V.): 1.87 h | half-life ([1]; iv, 25 mg/kg, I.V.): 1.29 h | AUC ([1]; iv, 50 mg/kg, I.V.): 217000 ng·h/mL | Cmax ([1]; iv, 50 mg/kg, I.V.): 165000 ng/mL | MRT ([1]; iv, 50 mg/kg, I.V.): 1.05 h | half-life ([1]; iv, 50 mg/kg, I.V.): 0.69 h | AUC ([1]; iv, 100 mg/kg, I.V.): 398000 ng·h/mL | Cmax ([1]; iv, 100 mg/kg, I.V.): 216000 ng/mL | MRT ([1]; iv, 100 mg/kg, I.V.): 1.14 h | half-life ([1]; iv, 100 mg/kg, I.V.): 0.75 h | AUC ([1]; iv, 200 mg/kg, I.V.): 739000 ng·h/mL | Cmax ([1]; iv, 200 mg/kg, I.V.): 466000 ng/mL | MRT ([1]; iv, 200 mg/kg, I.V.): 1.89 h | half-life ([1]; iv, 200 mg/kg, I.V.): 1.31 h | AUC ([1]; po, 10 mg/kg, salt solution): 1040 ng·h/mL | Cmax ([1]; po, 10 mg/kg, salt solution): 190 ng/mL | MRT ([1]; po, 10 mg/kg, salt solution): 8.29 h | half-life ([1]; po, 10 mg/kg, salt solution): 5.76 h | bioavailability ([1]; po, 10 mg/kg, salt, 10 mg/kg): 31.2% | AUC ([1]; po, 25 mg/kg, salt solution): 2200 ng·h/mL | Cmax ([1]; po, 25 mg/kg, salt solution): 550 ng/mL | MRT ([1]; po, 25 mg/kg, salt solution): 7.71 h | half-life ([1]; po, 25 mg/kg, salt solution): 5.33 h | bioavailability ([1]; po, 25 mg/kg, salt, 25 mg/kg): 4.7% | AUC ([1]; po, 50 mg/kg, salt solution): 4470 ng·h/mL | Cmax ([1]; po, 50 mg/kg, salt solution): 1590 ng/mL | MRT ([1]; po, 50 mg/kg, salt solution): 7.28 h | half-life ([1]; po, 50 mg/kg, salt solution): 5.04 h | bioavailability ([1]; po, 50 mg/kg, salt, 50 mg/kg): 2.1% | AUC ([1]; po, 100 mg/kg, salt solution): 41200 ng·h/mL | Cmax ([1]; po, 100 mg/kg, salt solution): 19800 ng/mL | MRT ([1]; po, 100 mg/kg, salt solution): 2.05 h | half-life ([1]; po, 100 mg/kg, salt solution): 1.42 h | bioavailability ([1]; po, 100 mg/kg, salt, 100 mg/kg): 10.3% | AUC ([1]; po, 200 mg/kg, salt solution): 200000 ng·h/mL | Cmax ([1]; po, 200 mg/kg, salt solution): 95200 ng/mL | MRT ([1]; po, 200 mg/kg, salt solution): 1.77 h | half-life ([1]; po, 200 mg/kg, salt solution): 1.23 h | bioavailability ([1]; po, 200 mg/kg, salt, 200 mg/kg): 27.1% | CL ([1]; salt solution, 10 mg/kg): 160 mL/min/kg | Vss ([1]; salt solution, 10 mg/kg): 79.8 L/kg | CL ([1]; salt solution, 25 mg/kg): 190 mL/min/kg | Vss ([1]; salt solution, 25 mg/kg): 87.7 L/kg | CL ([1]; salt solution, 50 mg/kg): 187 mL/min/kg | Vss ([1]; salt solution, 50 mg/kg): 81.4 L/kg | CL ([1]; salt solution, 100 mg/kg): 40.5 mL/min/kg | Vss ([1]; salt solution, 100 mg/kg): 4.99 L/kg | CL ([1]; salt solution, 200 mg/kg): 8.3 mL/min/kg | Vss ([1]; salt solution, 200 mg/kg): 0.89 L/kg | AUC [2, 14]: 29000 ng·h/mL | CL [2, 14]: 5 mL/min/kg | Cmax [2, 14]: 10700 ng/mL | MRT [2, 14]: 2.5 h | Vss [2, 14]: 0.9 L/kg | t1/2 [2, 14]: 1.8 h
